Measured values as given in patent US5932555A (priority 1997, dated 1999).
Values after ≈ are worked out from the molar mass of the structure shown. Read-outs that look alike come from different tables or passages of the source.

Assays:
[1] = test system: rejection of the transplant; settings: as an immunosuppressive agent, prior art; cited from earlier work
[2] = prior art, depending on case; cited from earlier work
[3] = test system: adriamycin-resistant P388; experiment: Cytotoxicity test on adriamycin-resistant P388 (P388/ADR) (MTT, 72 h); assay type: cell-based; settings: Mus musculus, P388, 72 h, read-out: IC50 (growth inhibition)
Method: (§1) Cultured tumor cell lines P388 and P388/ADR were suspended in RPMI1640 medium containing 10% heat inactivated fetal calf serum (FCS) and 20 μM 2-mercaptoethanol whereby a cell suspension (5×10^4 cells/ml) was prepared.
A sample examined was dissolved in methanol, then diluted with RPMI 1640 medium and subjected to serial 2-fold dilution starting at the concentration of 0.1 mg/ml. 180 μl of the cell suspension and 20 μl of the sample solution were added into a 96-well micro-titer plate and incubated at 37° C. in wet 5% CO2 gas/95% air. 72 hours thereafter, cell growth was measured by a calorimetric assay method using 3-(4,5-dimethyl-2-thiazolyl)-2,5-diphenyl-2H-tetrazolium bromide (MTT) as follows: 20 μl of 2 mg/ml MTT solution was added to each well and the cells were incubated for 4 hours at 37° C. Thereafter, 50 μl of 50% dimethylformamide solution containing 20% sodium dodecyl sulfate was added to each well and allowed to stand, so that the formed violet formazan crystal was dissolved, and its absorbance at 570 nm was measured in a microplate absorbance photometer (Immunoreader) and used as an indicator of the growth. The result was expressed in terms of the concentration of a sample at which growth was inhibited by 50% (IC50), which was determined from the relationship between sample concentrations and degrees of inhibition calculated using the following equation (1):
(§2) Degree of inhibition=[1-(absorbance in presence of sample)/(absorbance in
(§3) absence of sample)]×100 (1)

P388 [4] = experiment: Mouse in vivo antitumor test, P388 transplanted
Method: (§4) 2×10^5 cells of P388 or P388/ADR were inoculated intraperitoneally into each of CDF1 mice (male, each weighing 20 g, 10 animals/group), and from the next day, the test solution was administered at 10, 5, and 1 mg/kg body weight/day respectively by intraperitoneal injection of 200 μl sample at each concentration once a day for 10 successive days. The numbers with time of mice which survived after administration was counted and the average survival days and T/C (survival days of treated mice/survival days of control mice) were calculated. The average body weights after 10 days were also measured.

CDF1 mice = experiment: Repeated administration toxicity test (intraperitoneal); assay type: in vivo, mouse (CDF1); settings: for Body weight, Day 0: Day 0 (baseline); for Number of survived animals, Day 4 / Number of survived animals, Day 5 / Number of survived animals, Day 6 / Number of survived animals, Day 7 / Number of survived animals, Day 8 / Number of survived animals, Day 10: of 10
Method: (§5) As the comparative control, test solutions of adriamycin were prepared in the same manner. […] The number with time of survived animals after administration and the average body weights on Days 0, 5, and 10 were determined.

[5] = as above; assay type: in vivo, mouse (CDF1); settings: mouse, in vivo, ip, read-out: Fatality rate
Method: as §5

P388/ADR = experiment: Mouse in vivo antitumor test, P388/ADR transplanted
Method: as §4

P388 [6] = experiment: Cytotoxicity test on cultured tumor cell line P388 (MTT, 72 h); assay type: cell-based; settings: Mus musculus, P388, 72 h, read-out: IC50 (growth inhibition)
Method: as §1
72 hours thereafter, cell growth was measured by a calorimetric assay method using 3-(4,5-dimethyl-2-thiazolyl)-2,5-diphenyl-2H-tetrazolium bromide (MTT) as follows: 20 μl of 2 mg/ml MTT solution was added to each well and the cells were incubated for 4 hours at 37° C. Thereafter, 50 μl of 50% dimethylformamide solution containing 20% sodium dodecyl sulfate was added to each well and allowed to stand, so that the formed violet formazan crystal was dissolved, and its absorbance at 570 nm was measured in a microplate absorbance photometer (Immunoreader) and used as an indicator of the growth.
as §2, §3

[7] = P388, 1 mg/kg/day i.p. × 10 days
[8] = P388, 5 mg/kg/day i.p. × 10 days
[9] = P388, 10 mg/kg/day i.p. × 10 days
[10] = P388/ADR, 1 mg/kg/day i.p. × 10 days
[11] = P388/ADR, 5 mg/kg/day i.p. × 10 days
[12] = P388/ADR, 10 mg/kg/day i.p. × 10 days

C=CC[C@@H]1/C=C(\C)C[C@H](C)C[C@H](OC)[C@H]2O[C@@](O)(C(=O)C(=O)N3CCCC[C@H]3C(=O)O[C@H](/C(C)=C/[C@@H]3CC[C@@H](O)[C@H](OC)C3)[C@H](C)[C@@H](O)CC1=O)[C@H](C)C[C@@H]2OC [tacrorims (FK506)]
immunosuppressive results [1]: preferable results
side effects [2]: obstacles to the pancreas and kidney

COc1cccc2c1C(=O)c1c(O)c3c(c(O)c1C2=O)C[C@@](O)(C(=O)CO)C[C@@H]3O[C@H]1C[C@H](N)[C@H](O)[C@H](C)O1 [Adriamycin]
IC50 [3]: 0.53 µg/mL (≈ 0.975 µM)
T/C (P388 [4]; [7]): 120%
average survival days (P388 [4]; [7]): 12.4 days
T/C (P388 [4]; [8]): 81%
average survival days (P388 [4]; [8]): 8.4 days
T/C (P388 [4]; [9]): 76%
average survival days (P388 [4]; [9]): 7.8 days
therapeutic effect (improvement in survival rate) (P388 [4]; P388-transplanted mice, adriamycin 1 mg/kg/day vs 0406TP-1): same degree of therapeutic effect
therapeutic effect at high dosage (P388 [4]; more than 5 mg/kg body weight/day, due to its toxicity): did not show therapeutic effect
Body weight, Day 0 (CDF1 mice; 1 mg/kg/day i.p. group): 21.9 g
Number of survived animals, Day 4 (CDF1 mice; 1 mg/kg/day i.p. × 10 days): 10
Number of survived animals, Day 5 (CDF1 mice; 1 mg/kg/day i.p. × 10 days): 10
Number of survived animals, Day 6 (CDF1 mice; 1 mg/kg/day i.p. × 10 days): 10
Number of survived animals, Day 7 (CDF1 mice; 1 mg/kg/day i.p. × 10 days): 10
Number of survived animals, Day 8 (CDF1 mice; 1 mg/kg/day i.p. × 10 days): 10
Number of survived animals, Day 10 (CDF1 mice; 1 mg/kg/day i.p. × 10 days): 10
Body weight, Day 5 (CDF1 mice; 1 mg/kg/day i.p.): 23.5 g
Body weight, Day 10 (CDF1 mice; 1 mg/kg/day i.p.): 24.5 g
Body weight, Day 0 (CDF1 mice; 5 mg/kg/day i.p. group): 21.6 g
Number of survived animals, Day 4 (CDF1 mice; 5 mg/kg/day i.p. × 10 days): 10
Number of survived animals, Day 5 (CDF1 mice; 5 mg/kg/day i.p. × 10 days): 9
Number of survived animals, Day 6 (CDF1 mice; 5 mg/kg/day i.p. × 10 days): 9
Number of survived animals, Day 7 (CDF1 mice; 5 mg/kg/day i.p. × 10 days): 8
Number of survived animals, Day 8 (CDF1 mice; 5 mg/kg/day i.p. × 10 days): 3
Number of survived animals, Day 10 (CDF1 mice; 5 mg/kg/day i.p. × 10 days): 3
Body weight, Day 5 (CDF1 mice; 5 mg/kg/day i.p.): 21.0 g
Body weight, Day 10 (CDF1 mice; 5 mg/kg/day i.p.): 15.8 g
Body weight, Day 0 (CDF1 mice; 10 mg/kg/day i.p. group): 21.8 g
Number of survived animals, Day 4 (CDF1 mice; 10 mg/kg/day i.p. × 10 days): 10
Number of survived animals, Day 5 (CDF1 mice; 10 mg/kg/day i.p. × 10 days): 9
Number of survived animals, Day 6 (CDF1 mice; 10 mg/kg/day i.p. × 10 days): 8
Number of survived animals, Day 7 (CDF1 mice; 10 mg/kg/day i.p. × 10 days): 3
Number of survived animals, Day 8 (CDF1 mice; 10 mg/kg/day i.p. × 10 days): 0
Number of survived animals, Day 10 (CDF1 mice; 10 mg/kg/day i.p. × 10 days): 0
Body weight, Day 5 (CDF1 mice; 10 mg/kg/day i.p.): 17.7 g
survival in repeated administration (CDF1 mice; i.p. 10 days, in words): some animals in the group given adriamycin died
growth / body weight in repeated administration (CDF1 mice; i.p. 10 days, in words, vs control): growth was inferior to the control
mortality ([5]; 1 mg/kg/day i.p. × 10 days): 0%
mortality ([5]; 5 mg/kg/day i.p. × 10 days): 70%
mortality ([5]; 10 mg/kg/day i.p. × 10 days): 100%
T/C (P388/ADR; [10]): 96%
average body weight after 10 days (P388/ADR; [10]): 23.5 g
average survival days (P388/ADR; [10]): 10.7 days
T/C (P388/ADR; [11]): 63%
average survival days (P388/ADR; [11]): 7.0 days
T/C (P388/ADR; [12]): 68%
average survival days (P388/ADR; [12]): 7.5 days
therapeutic effect (P388/ADR; P388/ADR-transplanted mice): did not show therapeutic effect
IC50 (P388 [6]): 0.027 µg/mL (≈ 0.0497 µM)
